Our source for the pest or weed control values is US20200017467A1, “NOVEL TRIAZOLE DERIVATIVES” (BAYER CROPSCIENCE AKTIENGESELLSCHAFT, priority 2017, published 2020).

Experiment [1] concerns Septoria tritici. Kind of experiment: Example F-C: in vivo 5 days preventive Septoria tritici test (wheat). To be noted: Zymoseptoria tritici, 504 h, inoculated 5 days after spraying, evaluated 21 days after inoculation, read-out: Efficacy in % Example F-C. The method, then:
Example F: In Vivo Septoria tritici Test (Wheat); Comparison of Pyridinyloxy-Pyridyl Compounds According to the Invention Vs. Compounds Known from WO-A 2010/146116 [table] To produce a suitable preparation of active compound, 1 part by weight of active compound or active compound combination is mixed with the stated amounts of solvent and emulsifier, and the concentrate is diluted with water to the desired concentration. Example F-C: In Vivo 5 Days Preventive Septoria tritici Test (Wheat) To test for preventive and long-lasting activity, young plants are sprayed with a preparation of active compound or active compound combination at the stated rate of application. After the spray coating has been dried, the plants are placed in the greenhouse at a temperature of approximately 15° C. and a relative atmospheric humidity of approximately 80%. 5 days later the plants are sprayed with a spore suspension of Septoria tritici. The plants remain for 48 hours in an incubation cabinet at approximately 20° C. and a relative atmospheric humidity of approximately 100% and afterwards for 60 hours at approximately 15° C. in a translucent incubation cabinet at a relative atmospheric humidity of approximately 100%. Then the plants are placed in the greenhouse at a temperature of approximately 15° C. and a relative atmospheric humidity of approximately 80%. The test is evaluated 21 days after the inoculation. 0% means an efficacy which corresponds to that of the untreated control, while an efficacy of 100% means that no disease is observed.

Experiment [2] relates to Septoria tritici. Nature of the experiment: Example F-B: in vivo curative Septoria tritici test (wheat). As to conditions: Zymoseptoria tritici, 504 h, sprayed 48 hours after inoculation, evaluated 21 days after inoculation, read-out: Efficacy in % Example F-B. The method, then: Example F: In Vivo Septoria tritici Test (Wheat); Comparison of Pyridinyloxy-Pyridyl Compounds According to the Invention Vs. Compounds Known from WO-A 2010/146116 [table] To produce a suitable preparation of active compound, 1 part by weight of active compound or active compound combination is mixed with the stated amounts of solvent and emulsifier, and the concentrate is diluted with water to the desired concentration. Example F-B: In Vivo Curative Septoria tritici Test (Wheat) To test for curative activity, young plants are inoculated with a spore suspension of Septoria tritici and remain for 48 hours in an incubation cabinet at a temperature of approximately 20° C. and a relative atmospheric humidity of approximately 100%. 48 hours after the incubation, the plants are sprayed with the preparation of active compound or active compound combination at the stated rate of application. After application the plants remain for 60 hours at a temperature of approximately 15° C. in a translucent incubation cabinet at a relative atmospheric humidity of approximately 100%. Afterwards, the plants are placed in the greenhouse at a temperature of approximately 15° C. and a relative atmospheric humidity of approximately 80%. The test is evaluated 21 days after the inoculation. 0% means an efficacy which corresponds to that of the untreated control, while an efficacy of 100% means that no disease is observed.

The test system of experiment [3] is Septoria tritici. Nature of the experiment: Example F-A: in vivo preventive Septoria tritici test (wheat). To be noted: Zymoseptoria tritici, 504 h, evaluated 21 days after inoculation, read-out: Efficacy in % Example F-A. The method, then: Example F: In Vivo Septoria tritici Test (Wheat); Comparison of Pyridinyloxy-Pyridyl Compounds According to the Invention Vs. Compounds Known from WO-A 2010/146116 [table] To produce a suitable preparation of active compound, 1 part by weight of active compound or active compound combination is mixed with the stated amounts of solvent and emulsifier, and the concentrate is diluted with water to the desired concentration. Example F-A: In Vivo Preventive Septoria tritici Test (Wheat) To test for preventive activity, young plants are sprayed with the preparation of active compound or active compound combination at the stated rate of application. After the spray coating has been dried, the plants are sprayed with a spore suspension of Septoria tritici. The plants remain for 48 hours in an incubation cabinet at approximately 20° C. and a relative atmospheric humidity of approximately 100% and afterwards for 60 hours at approximately 15° C. in a translucent incubation cabinet at a relative atmospheric humidity of approximately 100%. The plants are placed in the greenhouse at a temperature of approximately 15° C. and a relative atmospheric humidity of approximately 80%. The test is evaluated 21 days after the inoculation. 0% means an efficacy which corresponds to that of the untreated control, while an efficacy of 100% means that no disease is observed.

For `Clc1ccc(Oc2cc(Cl)c(C3(Cn4cncn4)OCCO3)cn2)cc1` [reference compound], the results for the pest or weed control at 500 ppm in the experiment on Septoria tritici [1], in the experiment on Septoria tritici [2] and with Septoria tritici [3] were 80%, 89% and 89%, respectively.
